Measured values reported in paper PMC7539012, “Hyperphosphorylated tau aggregation and cytotoxicity modulators screen identified prescription drugs linked to Alzheimer's disease and cognitive functions” (Scientific Reports, 2020).
Structures can show the parent of a compound that is named as a salt.

system: T1, 1N4R p-tau; assay: p-tau aggregation modulator screen of 1280-compound library (ThS fluorescence net change over 16 h); assay type: biochemical; conditions: not given;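 further: 30 µM compound with 6 µM p-tau over 16 h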
T1 construct: made in house; host or cells: E. coli (PIMAX system)

**Q.** Which ThS net change does the source give for O=C([O-])[C@H]1/C(=C/CO)O[C@@H]2CC(=O)N21.[K+] [Clavulanate potassium salt] here?
**A.** 431

**Q.** How did the ThS net change turn out when Cc1cccn2c(=O)c(-c3nnn[nH]3)cnc12 [Pemirolast potassium] was run?
**A.** 446

**Q.** Which ThS net change does the source give for CN(C)CCCN1c2ccccc2CCc2ccc(Cl)cc21 [Clomipramine hydrochloride] here?
**A.** 307

**Q.** Which ThS net change does the source give for NC(=O)C[S+]([O-])C(c1ccccc1)c1ccccc1 (stereo not shown) [Modafinil] here?
**A.** 413

**Q.** With CNNCc1ccc(C(=O)NC(C)C)cc1 [Procarbazine hydrochloride] as the compound, how does the ThS net change read?
**A.** 457

**Q.** For CN[C@H](CC(C)C)C(=O)N[C@H]1C(=O)N[C@@H](CC(N)=O)C(=O)N[C@H]2C(=O)N[C@H]3C(=O)N[C@H](C(=O)N[C@H](C(=O)O)c4cc(O)cc(O)c4-c4cc3ccc4O)[C@H](O)c3ccc(c(Cl)c3)Oc3cc2cc(c3O[C@@H]2O[C@H](CO)[C@@H](O)[C@H](O)[C@H]2O[C@H]2C[C@](C)(N)[C@H](O)[C@H](C)O2)Oc2ccc(cc2Cl)[C@H]1O [Vancomycin hydrochloride], which ThS net change is on record?
**A.** 408

**Q.** Which ThS net change does the source give for COc1cc(NC(C)CCCN)c2ncccc2c1 (stereo not shown) [Primaquine diphosphate] here?
**A.** 250

same assay, conditions: 1280-compound library screen; ThS fluorescence net change over 16 h

**Q.** Which ThS net change does the source give for CC(CCc1ccccc1)NC(C)C(O)c1ccc(O)cc1 (stereo not shown) [Nylidrin] here?
**A.** 408

**Q.** With CCCN[C@H]1CCc2nc(N)sc2C1 [Pramipexole dihydrochloride] as the compound, how does the ThS net change read?
**A.** 385

**Q.** How did the ThS net change turn out when CC(CN(C)C)CN1c2ccccc2CCc2ccccc21.O=C(O)/C=C\C(=O)O (stereo not shown) [Trimipramine maleate salt] was run?
**A.** 399

**Q.** Which ThS net change does the source give for Cn1cnc2c1c(=O)[nH]c(=O)n2C [Theobromine] here?
**A.** 392

**Q.** How did the ThS net change turn out when CCCCOC(=O)c1ccc(N)cc1 [Butamben] was run?
**A.** 387

**Q.** How did the ThS net change turn out when CCN1CCCC(OC(=O)C(c2ccccc2)c2ccccc2)C1 (stereo not shown) [Piperidolate hydrochloride] was run?
**A.** 406

**Q.** With COC(=O)N/N=C/c1c[n+]([O-])c2ccccc2[n+]1[O-] [Carbadox] as the compound, how does the ThS net change read?
**A.** 380

**Q.** How did the ThS net change turn out when C=C(CC)C(=O)c1ccc(OCC(=O)O)c(Cl)c1Cl [Ethacrynic acid] was run?
**A.** 412

**Q.** With Cc1nc2ccccn2c(=O)c1CCN1CCC(C(=O)c2ccc(F)cc2)CC1 [Pirenperone] as the compound, how does the ThS net change read?
**A.** 388

**Q.** Which ThS net change does the source give for OC[C@H]1O[C@@H](Oc2ccc(O)cc2)[C@H](O)[C@@H](O)[C@@H]1O [Arbutin] here?
**A.** 409

**Q.** With N=C(N)N/N=C/c1c(Cl)cccc1Cl [Guanabenz acetate] as the compound, how does the ThS net change read?
**A.** 405

**Q.** How did the ThS net change turn out when Cc1ncc(C[n+]2csc(CCO)c2C)c(N)n1 [Thiamine hydrochloride] was run?
**A.** 383

**Q.** How did the ThS net change turn out when CC1(C)OC(=O)NC1=O [Dimethadione] was run?
**A.** 381

**Q.** How did the ThS net change turn out when Cc1onc(-c2ccccc2)c1-c1ccc(S(N)(=O)=O)cc1 [Valdecoxib] was run?
**A.** 393

same assay, conditions: 1280-compound library screen; […]

**Q.** Which ThS net change does the source give for Nc1ccc(S(=O)(=O)[N-]c2cnc3ccccc3n2)cc1.[Na+] [Sulfaquinoxaline sodium salt] here?
**A.** 398

**Q.** How did the ThS net change turn out when CN[C@@H]1[C@@H](O)[C@@H](O[C@@H]2[C@@H](O)[C@H](O[C@H]3OC(CN)=CC[C@H]3N)[C@@H](N)C[C@H]2N)OC[C@]1(C)O [Sisomicin sulfate] was run?
**A.** 381

**Q.** For CC(=O)OCC(=O)[C@H]1CC[C@H]2[C@@H]3CC[C@H]4C[C@H](O)CC[C@]4(C)[C@H]3C(=O)C[C@]12C [Alfadolone acetate], which ThS net change is on record?
**A.** 396

**Q.** Which ThS net change does the source give for CC(=O)Nc1c(I)c(NC(C)=O)c(I)c(C(=O)O)c1I.O.O [Diatrizoic acid dihydrate] here?
**A.** 407

**Q.** With Cl.O.O.O=C1CC[C@@]2(O)[C@H]3Cc4ccc(O)c5c4[C@@]2(CCN3CC2CC2)[C@H]1O5 [Naltrexone hydrochloride dihydrate] as the compound, how does the ThS net change read?
**A.** 408

**Q.** Which ThS net change does the source give for CC(Oc1ccccc1)C(=O)N[C@@H]1C(=O)N2[C@@H]1SC(C)(C)[C@@H]2C(=O)[O-].[K+] (stereo partly shown) [Phenethicillin potassium salt] here?
**A.** 387

**Q.** For NC(=NCc1ccccc1)NC(=O)c1nc(Cl)c(N)nc1N [Benzamil hydrochloride], which ThS net change is on record?
**A.** 379

same assay, conditions: library screen, ThS fluorescence net change over 16 h with p-tau

**Q.** How did the ThS net change turn out when Cc1scc2c1N(C(=O)CN1CCN(C)CC1)c1ccccc1NC2=O [Telenzepine dihydrochloride] was run?
**A.** 326

**Q.** Oc1ccc(C2CNCCc3c2cc(O)c(O)c3Cl)cc1 (stereo not shown) [Fenoldopam] was tested. Which ThS net change did it give?
**A.** 310

**Q.** For CN(Cc1cnc2nc(N)nc(N)c2n1)c1ccc(C(=O)N[C@@H](CCC(=O)O)C(=O)O)cc1 [Methotrexate], which ThS net change is on record?
**A.** 326

**Q.** For CC(=O)Oc1ccccc1C(=O)Nc1ncc([N+](=O)[O-])s1 [Nitazoxanide], which ThS net change is on record?
**A.** 198

**Q.** With CCCCC(CC)CNC(=N)NC(=N)NCCCCCCNC(=N)NC(=N)NCC(CC)CCCC (stereo not shown) [Alexidine dihydrochloride] as the compound, how does the ThS net change read?
**A.** 327

**Q.** How did the ThS net change turn out when CC(=O)Oc1cccc2c1C(=O)c1c(OC(C)=O)cc(C(=O)O)cc1C2=O [Diacerein] was run?
**A.** 239

**Q.** Which ThS net change does the source give for CN(C)CCC(c1ccccc1)c1ccccn1 (stereo not shown) [Pheniramine maleate] here?
**A.** 318

same assay, conditions: p-tau aggregation modulator screen of 1280-compound library; ThS fluorescence net change

**Q.** O=C(O)c1cn(-c2ccc(F)cc2)c2cc(N3CCNCC3)c(F)cc2c1=O [Sarafloxacin] was tested. Which ThS net change did it give?
**A.** 332

**Q.** How did the ThS net change turn out when Cc1cc(=O)oc2cc(O)ccc12 [Hymecromone] was run?
**A.** 357

**Q.** Which ThS net change does the source give for COc1ccc2c(c1)N(C[C@H](C)CN(C)C)c1ccccc1S2.O=C(O)/C=C\C(=O)O [Methotrimeprazine maleat salt] here?
**A.** 355

**Q.** How did the ThS net change turn out when CC1=C(/C=C/C(C)=C/C=C/C(C)=C/C(=O)O)C(C)(C)CCC1 [Retinoic acid] was run?
**A.** 374

**Q.** How did the ThS net change turn out when CCN(CC)C(C)CN1c2ccccc2Sc2ccccc21 (stereo not shown) [Ethopropazine hydrochloride] was run?
**A.** 336

**Q.** With Nc1nc2[nH]nnc2c(=O)[nH]1 [Azaguanine-8] as the compound, how does the ThS net change read?
**A.** 377

**Q.** How did the ThS net change turn out when CCN(CC)CCNC(=O)COc1ccc(OC)cc1.Cl [Mefexamide hydrochloride] was run?
**A.** 331

**Q.** How did the ThS net change turn out when CCc1nc(N)nc(N)c1-c1ccc(Cl)cc1 [Pyrimethamine] was run?
**A.** 354

**Q.** Which ThS net change does the source give for OC(CCN1CCCC1)(c1ccccc1)C1CCCCC1 (stereo not shown) [Procyclidine hydrochloride] here?
**A.** 347

same assay, conditions: p-tau aggregation modulator screen of 1280-compound library; […]

**Q.** For C[C@]12CCC(=O)C=C1C=C[C@@H]1[C@@H]2CC[C@@]2(C)[C@H]1CC[C@@]2(O)CCC(=O)[O-].[K+] [Canrenoic acid potassium salt], which ThS net change is on record?
**A.** 329

same assay, conditions: p-tau aggregation modulator screen of the compound library, ThS fluorescence net change

**Q.** How did the ThS net change turn out when C[C@@H](c1ncncc1F)[C@](O)(Cn1cncn1)c1ccc(F)cc1F [Voriconazole] was run?
**A.** 435

**Q.** For Clc1ccc2c(c1)C(N1CCNCC1)=Nc1ccccc1O2 [Amoxapine], which ThS net change is on record?
**A.** 416

**Q.** With Clc1ccc(C(c2ccccc2Cl)C(Cl)Cl)cc1 (stereo not shown) [Mitotane] as the compound, how does the ThS net change read?
**A.** 449

**Q.** Which ThS net change does the source give for CCCc1nn(C)c2c(=O)[nH]c(-c3cc(S(=O)(=O)N4CCN(C)CC4)ccc3OCC)nc12 [Sildenafil] here?
**A.** 461

**Q.** For CC(C)(C)NC[C@H](O)COc1ccccc1C1CCCC1 [Penbutolol sulfate], which ThS net change is on record?
**A.** 457

**Q.** Which ThS net change does the source give for CO[C@@]1(NC(=O)C(C(=O)O)c2ccc(O)cc2)C(=O)N2C(C(=O)O)=C(CSc3nnnn3C)CO[C@@H]21 (stereo partly shown) [Moxalactam disodium salt] here?
**A.** 419

**Q.** How did the ThS net change turn out when CCn1nc(C(=O)O)c(=O)c2cc3c(cc21)OCO3 [Cinoxacin] was run?
**A.** 431

**Q.** Which ThS net change does the source give for Cc1c(O)cccc1C(=O)N[C@@H](CSc1ccccc1)[C@H](O)CN1C[C@H]2CCCC[C@H]2C[C@H]1C(=O)NC(C)(C)C [Nelfinavir mesylate] here?
**A.** 563

**Q.** Which ThS net change does the source give for Cc1cccc(C)c1NC(=O)C1CCCCN1C (stereo not shown) [Mepivacaine hydrochloride] here?
**A.** 428

**Q.** CN(C)CCCSC(=N)N.Cl.Cl [Dimaprit dihydrochloride] was tested. Which ThS net change did it give?
**A.** 436
